Measurements taken from PubChem BioAssay AID1963850 (Molecular Pharmacology Branch, DTP, NCI, 2024).

Tested on: 192522-019-R-J2-PDC complex tumor spheroid viability
Assay: Anticancer human tumor 192522-019-R-J2-PDC patient-derived colon adenocarcinoma cell line growth inhibition [POLQ]
Conditions: for IC50: curve of first compound; for viability, T/C: stronger effect = lower value
Procedure, shortened: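 PDC + HUVEC + MSC complex spheroids; POLQ inhibitors ± partner drugs; top conc. at/near clinical Cmax, else 10 microM (SN-38 1 microM), half-log dilutions; 37 degrees C, 5% CO2.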
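Also: spheroids exposed to drugs for seven days before reading.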
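For viability, T/C in this document: 100% = DMSO vehicle control viability in luminescence.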

## CC(=O)O[C@H]1C(=O)[C@@]2(C)[C@H]([C@H](OC(=O)c3ccccc3)[C@]3(O)C[C@H](OC(=O)[C@H](O)[C@@H](NC(=O)c4ccccc4)c4ccccc4)C(C)=C1C3(C)C)[C@]1(OC(C)=O)CO[C@@H]1C[C@@H]2O + Cc1cccc(N(C)C(=O)C2C(O)CCN2c2nc(C)cc(C(F)(F)F)c2C#N)c1
Second compound 0.0316 µM
  IC50: > 3000 nM
Second compound 0.1 µM
  IC50: > 3000 nM
Second compound 0.316 µM
  IC50: > 3000 nM
Second compound 1 µM
  IC50: > 3000 nM
Second compound 3.16 µM
  IC50: > 3000 nM
Second compound 10 µM
  IC50: > 3000 nM
Second compound 0.0316 µM, first compound 0.00949 µM
  viability, T/C: 90%
Second compound 0.0316 µM, first compound 0.03 µM
  viability, T/C: 69.4%
Second compound 0.0316 µM, first compound 0.0949 µM
  viability, T/C: 52.2%
Second compound 0.0316 µM, first compound 0.3 µM
  viability, T/C: 59%
Second compound 0.0316 µM, first compound 0.949 µM
  viability, T/C: 56.8%
Second compound 0.0316 µM, first compound 3 µM
  viability, T/C: 54.7%
Second compound 0.1 µM, first compound 0.00949 µM
  viability, T/C: 98.5%
Second compound 0.1 µM, first compound 0.03 µM
  viability, T/C: 74.3%
Second compound 0.1 µM, first compound 0.0949 µM
  viability, T/C: 53.1%
Second compound 0.1 µM, first compound 0.3 µM
  viability, T/C: 64.4%
Second compound 0.1 µM, first compound 0.949 µM
  viability, T/C: 60.4%
Second compound 0.1 µM, first compound 3 µM
  viability, T/C: 57.9%
Second compound 0.316 µM, first compound 0.00949 µM
  viability, T/C: 92.1%
Second compound 0.316 µM, first compound 0.03 µM
  viability, T/C: 79.5%
Second compound 0.316 µM, first compound 0.0949 µM
  viability, T/C: 61.8%
Second compound 0.316 µM, first compound 0.3 µM
  viability, T/C: 58.4%
Second compound 0.316 µM, first compound 0.949 µM
  viability, T/C: 64.3%
Second compound 0.316 µM, first compound 3 µM
  viability, T/C: 62.4%
Second compound 1 µM, first compound 0.00949 µM
  viability, T/C: 102%
Second compound 1 µM, first compound 0.03 µM
  viability, T/C: 84%
Second compound 1 µM, first compound 0.0949 µM
  viability, T/C: 61.1%
Second compound 1 µM, first compound 0.3 µM
  viability, T/C: 60.3%
Second compound 1 µM, first compound 0.949 µM
  viability, T/C: 54.3%
Second compound 1 µM, first compound 3 µM
  viability, T/C: 55.5%
Second compound 3.16 µM, first compound 0.00949 µM
  viability, T/C: 105%
Second compound 3.16 µM, first compound 0.03 µM
  viability, T/C: 79.8%
Second compound 3.16 µM, first compound 0.0949 µM
  viability, T/C: 61.8%
Second compound 3.16 µM, first compound 0.3 µM
  viability, T/C: 59.5%
Second compound 3.16 µM, first compound 0.949 µM
  viability, T/C: 65.8%
Second compound 3.16 µM, first compound 3 µM
  viability, T/C: 57.4%
Second compound 10 µM, first compound 0.00949 µM
  viability, T/C: 94%
Second compound 10 µM, first compound 0.03 µM
  viability, T/C: 67.8%
Second compound 10 µM, first compound 0.0949 µM
  viability, T/C: 58.3%
Second compound 10 µM, first compound 0.3 µM
  viability, T/C: 58.9%
Second compound 10 µM, first compound 0.949 µM
  viability, T/C: 56.8%
Second compound 10 µM, first compound 3 µM
  viability, T/C: 63.3%

## CC[C@@]1(O)C(=O)OCc2c1cc1n(c2=O)Cc2cc3c(CN(C)C)c(O)ccc3nc2-1 + Cc1cccc(N(C)C(=O)C2C(O)CCN2c2nc(C)cc(C(F)(F)F)c2C#N)c1
Second compound 0.0316 µM
  IC50: > 100 nM
Second compound 0.1 µM
  IC50: > 100 nM
Second compound 0.316 µM
  IC50: > 100 nM
Second compound 1 µM
  IC50: > 100 nM
Second compound 3.16 µM
  IC50: > 100 nM
Second compound 10 µM
  IC50: > 100 nM
Second compound 0.0316 µM, first compound 0.000316 µM
  viability, T/C: 116%
Second compound 0.0316 µM, first compound 0.001 µM
  viability, T/C: 93.7%
Second compound 0.0316 µM, first compound 0.00316 µM
  viability, T/C: 103%
Second compound 0.0316 µM, first compound 0.01 µM
  viability, T/C: 99.2%
Second compound 0.0316 µM, first compound 0.0316 µM
  viability, T/C: 98.7%
Second compound 0.0316 µM, first compound 0.1 µM
  viability, T/C: 62.4%
Second compound 0.1 µM, first compound 0.000316 µM
  viability, T/C: 106%
Second compound 0.1 µM, first compound 0.001 µM
  viability, T/C: 98.4%
Second compound 0.1 µM, first compound 0.00316 µM
  viability, T/C: 102%
Second compound 0.1 µM, first compound 0.01 µM
  viability, T/C: 94.5%
Second compound 0.1 µM, first compound 0.0316 µM
  viability, T/C: 88%
Second compound 0.1 µM, first compound 0.1 µM
  viability, T/C: 64.5%
Second compound 0.316 µM, first compound 0.000316 µM
  viability, T/C: 102%
Second compound 0.316 µM, first compound 0.001 µM
  viability, T/C: 106%
Second compound 0.316 µM, first compound 0.00316 µM
  viability, T/C: 104%
Second compound 0.316 µM, first compound 0.01 µM
  viability, T/C: 102%
Second compound 0.316 µM, first compound 0.0316 µM
  viability, T/C: 93.8%
Second compound 0.316 µM, first compound 0.1 µM
  viability, T/C: 70%
Second compound 1 µM, first compound 0.000316 µM
  viability, T/C: 106%
Second compound 1 µM, first compound 0.001 µM
  viability, T/C: 106%
Second compound 1 µM, first compound 0.00316 µM
  viability, T/C: 111%
Second compound 1 µM, first compound 0.01 µM
  viability, T/C: 102%
Second compound 1 µM, first compound 0.0316 µM
  viability, T/C: 96.2%
Second compound 1 µM, first compound 0.1 µM
  viability, T/C: 75.2%
Second compound 3.16 µM, first compound 0.000316 µM
  viability, T/C: 99.2%
Second compound 3.16 µM, first compound 0.001 µM
  viability, T/C: 114%
Second compound 3.16 µM, first compound 0.00316 µM
  viability, T/C: 115%
Second compound 3.16 µM, first compound 0.01 µM
  viability, T/C: 98.4%
Second compound 3.16 µM, first compound 0.0316 µM
  viability, T/C: 102%
Second compound 3.16 µM, first compound 0.1 µM
  viability, T/C: 79.5%
Second compound 10 µM, first compound 0.000316 µM
  viability, T/C: 110%
Second compound 10 µM, first compound 0.001 µM
  viability, T/C: 107%
Second compound 10 µM, first compound 0.00316 µM
  viability, T/C: 120%
Second compound 10 µM, first compound 0.01 µM
  viability, T/C: 102%
Second compound 10 µM, first compound 0.0316 µM
  viability, T/C: 95.3%
Second compound 10 µM, first compound 0.1 µM
  viability, T/C: 75%
